Results taken from US20060100245A1, “Substituted biphenyl-4-carboxylic acid arylamide analogues” (Neurogen Corporation, priority 2002, published 2006).
Read-outs that look alike come from different tables or passages of the source.

Target: T1, human capsaicin receptor (VR1) (Homo sapiens, UniProt Q8NER1)
T1 construct: transfected with the pBK-CMV expression construct encoding the full length human capsaicin receptor; expressed in transfected cells
Experiment: Capsaicin receptor binding assay ([3H]RTX competition)
In short: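 Membranes from HEK293 cells stably expressing full-length human VR1; competition against 60 pM [3H]RTX, 60 min at 37 °C in HEPES/sucrose buffer pH 7.4 with 0.25 mg/ml BSA. Non-specific binding defined with 1 μM unlabelled RTX; alpha1-acid glycoprotein added after termination on ice.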

T1 sequence (Q8NER1 whole entry): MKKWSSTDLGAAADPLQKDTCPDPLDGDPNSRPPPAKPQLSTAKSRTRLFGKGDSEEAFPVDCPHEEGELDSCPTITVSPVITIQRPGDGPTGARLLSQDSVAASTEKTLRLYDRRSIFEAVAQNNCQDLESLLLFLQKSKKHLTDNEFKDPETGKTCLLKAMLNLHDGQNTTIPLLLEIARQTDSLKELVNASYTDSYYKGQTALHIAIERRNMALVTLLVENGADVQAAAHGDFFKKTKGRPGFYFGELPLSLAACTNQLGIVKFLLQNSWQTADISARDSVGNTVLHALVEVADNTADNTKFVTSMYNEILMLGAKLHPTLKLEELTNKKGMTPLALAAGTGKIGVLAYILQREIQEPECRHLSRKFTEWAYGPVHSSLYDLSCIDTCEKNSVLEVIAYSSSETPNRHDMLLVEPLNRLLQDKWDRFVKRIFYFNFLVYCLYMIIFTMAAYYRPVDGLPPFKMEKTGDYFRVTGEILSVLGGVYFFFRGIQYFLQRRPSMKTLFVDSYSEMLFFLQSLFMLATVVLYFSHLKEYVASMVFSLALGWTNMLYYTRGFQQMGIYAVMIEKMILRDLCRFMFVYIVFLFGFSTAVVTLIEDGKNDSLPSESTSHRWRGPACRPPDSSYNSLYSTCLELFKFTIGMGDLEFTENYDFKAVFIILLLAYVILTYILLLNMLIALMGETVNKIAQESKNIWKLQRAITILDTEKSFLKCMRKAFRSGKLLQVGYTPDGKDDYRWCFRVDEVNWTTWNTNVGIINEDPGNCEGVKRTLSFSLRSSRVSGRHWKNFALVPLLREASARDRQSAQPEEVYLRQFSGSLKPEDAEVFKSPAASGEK

| Compound | Ki (read-out: Ki) [nM] | Ki [nM] |
| --- | --- | --- |
| CC(C)(C)c1ccc(NC(=O)c2ccc(-c3ccncc3[N+](=O)[O-])cc2)cc1 [Compound 416, N-(4-tert-Butyl-phenyl)-4-(3-nitro-pyridin-4-yl)-benzamide] | < 1000 |  |
| CC(C)(C)c1ccc(NC(=O)c2ccc(-c3ncccc3NS(=O)(=O)Cc3ccccc3)cc2)cc1 [Compound 417, N-(4-tert-Butyl-phenyl)-4-(3-phenylinethanesulfonylamino-pyridin-2-yl)-benzamide] | < 1000 |  |
| CCCOc1cccnc1-c1ccc(C(=O)Nc2ccc(C(C)(C)C)cc2)cc1 [Compound 418, N-(4-tert-Butyl-phenyl)-4-(3-propoxy-pyridin-2-yl)-benzamide] | < 1000 |  |
| CCCNc1cccnc1-c1ccc(C(=O)Nc2ccc(C(C)(C)C)cc2)cc1 [Compound 419, N-(4-tert-Butyl-phenyl)-4-(3-propylamino-pyridin-2-yl)-benzamide] | < 1000 |  |
| CC(C)(C)c1ccc(NC(=O)c2ccc(-c3ncccc3CN3CCCC3)cc2)cc1 [Compound 420, N-(4-tert-Butyl-phenyl)-4-(3-pyrrolidin-1-ylmethyl-pyridin-2-yl)-benzamide] | < 1000 |  |
| CC(C)(C)c1ccc(NC(=O)c2ccc(-c3ncccc3C(F)(F)F)cc2)cc1 [Compound 421, N-(4-tert-Butyl-phenyl)-4-(3-trifluoromethyl-pyridin-2-yl)-benzamide] | < 1000 |  |
| CC(C)(C)c1ccc(NC(=O)c2ccc(-c3cc(C(F)(F)F)ccn3)cc2)cc1 [Compound 422, N-(4-tert-Butyl-phenyl)-4-(4-trifluoromethyl-pyridin-2-yl)-benzamide] | < 1000 |  |
| CC(C)(C)c1ccc(NC(=O)c2ccc(-c3ncccc3NS(=O)(=O)c3ccc(F)cc3)cc2)cc1 [Compound 423, N-(4-tert-Butyl-phenyl)-4-[3-(4-fluoro-benzenesulfonylamino)-pyridin-2-yl]-benzamide] | < 1000 |  |
| Cc1nnc(-c2cccnc2-c2ccc(C(=O)Nc3ccc(C(C)(C)C)cc3)cc2)o1 [Compound 424, N-(4-tert-Butyl-phenyl)-4-[3-(5-methyl-[1,3,4]oxadiazol-2-yl)-pyridin-2-yl]-benzamide] | < 1000 |  |
| CN(c1cccnc1-c1ccc(C(=O)Nc2ccc(C(C)(C)C)cc2)cc1)S(C)(=O)=O [Compound 425, N-(4-tert-Butyl-phenyl)-4-[3-(methanesulfonyl-methyl-amino)-pyridin-2-yl]-benzamide] | < 1000 |  |
| CC(C)(C)c1ccc(NC(=O)c2ccc(-c3ncccc3N(S(C)(=O)=O)S(C)(=O)=O)cc2)cc1 [Compound 426, N-(4-tert-Butyl-phenyl)-4-[3-(N,N-dimethanesulfonyl)amino-pyridin-2-yl]-benzamide] | < 1000 |  |
| CC(C)(C)c1ccc(NC(=O)c2ccc(-c3ccncc3N(S(C)(=O)=O)S(C)(=O)=O)cc2)cc1 [Compound 427, N-(4-tert-Butyl-phenyl)-4-[3-(N,N-dimethanesulfonyl)amino-pyridin-4-yl]-benzamide] | < 1000 |  |
| Cc1ccc(S(=O)(=O)Nc2cccnc2-c2ccc(C(=O)Nc3ccc(C(C)(C)C)cc3)cc2)cc1 [Compound 428, N-(4-tert-Butyl-phenyl)-4-[3-(toluene-4-sulfonylamino)-pyridin-2-yl]-benzamide] | < 1000 |  |
| CC(C)(C)c1ccc(NC(=O)c2ccc(C3CCCCN3)cc2)cc1 (stereo not drawn) [Compound 429, N-(4-tert-Butyl-phenyl)-4-piperidin-2-yl-benzamide] | < 1000 |  |
| CC(C)(C)c1ccc(NC(=O)c2ccc(-c3ccccn3)cc2)cc1 [Compound 430, N-(4-tert-Butyl-phenyl)-4-pyridin-2-yl-benzamide] | < 1000 |  |
| CC(C)(C)c1ccc(NC(=O)c2ccc(-c3cccnc3)cc2)cc1 [Compound 431, N-(4-tert-Butyl-phenyl)-4-pyridin-3-yl-benzamide] | < 1000 |  |
| CC(C)(C)c1ccc(NC(=O)c2ccc(-c3ccncc3)cc2)cc1 [Compound 432, N-(4-tert-Butyl-phenyl)-4-pyridin-4-yl-benzamide] | < 1000 |  |
| CC(C)(C)c1ccc(NC(=O)c2ccc(-c3ncccn3)cc2)cc1 [Compound 433, N-(4-tert-Butyl-phenyl)-4-pyrimidin-2-yl-benzamide] | < 1000 |  |
| CC(C)(C)c1ccc(NC(=O)c2ccc(-c3cnc4ccccc4c3)cc2)cc1 [Compound 434, N-(4-tert-Butyl-phenyl)-4-quinolin-3-yl-benzamide] | < 1000 |  |
| CC(C)(C)c1ccc(NC(=O)c2cnc(-c3ccccc3Cl)c(Cl)c2)cc1 [Compound 435, N-(4-tert-Butyl-phenyl)-5-chloro-6-(2-chloro-phenyl)-nicotinamide] | < 1000 |  |
| CC(C)(C)c1ccc(NC(=O)c2cnc(-c3ccccc3)c(Cl)c2)cc1 [Compound 436, N-(4-tert-Butyl-phenyl)-5-chloro-6-phenyl-nicotinamide] | < 1000 |  |
| CC(C)(C)c1ccc(NC(=O)c2ccc(-c3ccc(F)cc3F)nc2)cc1 [Compound 437, N-(4-tert-Butyl-phenyl)-6-(2,4-difluoro-phenyl)-nicotinamide] | < 1000 |  |
| CC(C)(C)c1ccc(NC(=O)c2ccc(-c3c(F)cccc3F)nc2)cc1 [Compound 438, N-(4-tert-Butyl-phenyl)-6-(2,6-difluoro-phenyl)-nicotinamide] | < 1000 |  |

| Compound | Ki (read-out: Ki) [nM] | Ki [nM] |
| --- | --- | --- |
| Cc1cccc(C)c1-c1ccc(C(=O)Nc2ccc(C(C)(C)C)cc2)cn1 [Compound 439, N-(4-tert-Butyl-phenyl)-6-(2,6-dimethyl-phenyl)-nicotinamide] | < 1000 |  |
| CCOc1ccc(-c2ccc(C(=O)Nc3ccc(C(C)(C)C)cc3)cn2)c(Cl)c1 [Compound 440, N-(4-tert-Butyl-phenyl)-6-(2-chloro-4-ethoxy-phenyl)-nicotinamide] | < 1000 |  |
| CC(C)(C)c1ccc(NC(=O)c2cnc(-c3ccccc3Cl)cc2O)cc1 [Compound 441, N-(4-tert-Butyl-phenyl)-6-(2-chloro-phenyl)-4-hydroxy-nicotinamide] | < 1000 |  |
| CC(C)(C)c1ccc(NC(=O)c2ccc(-c3ccccc3Cl)nc2)cc1 [Compound 442, N-(4-tert-Butyl-phenyl)-6-(2-chloro-phenyl)-nicotinamide] | < 1000 |  |
| CC(C)(C)c1ccc(NC(=O)c2ccc(-c3ccccc3F)nc2)cc1 [Compound 443, N-(4-tert-Butyl-phenyl)-6-(2-fluoro-phenyl)-nicotinamide] | < 1000 |  |
| CC(C)(C)c1ccc(NC(=O)c2ccc(-c3ccccc3CO)nc2)cc1 [Compound 444, N-(4-tert-Butyl-phenyl)-6-(2-hydroxymethyl-phenyl)-nicotinamide] | < 1000 |  |
| CC(C)(C)c1ccc(NC(=O)c2ccc(-c3ccccc3NS(C)(=O)=O)nc2)cc1 [Compound 445, N-(4-tert-Butyl-phenyl)-6-(2-methanesulfonylamino-phenyl)-nicotinamide] | < 1000 |  |
| CC(C)(C)c1ccc(NC(=O)c2ccc(-c3ccccc3[N+](=O)[O-])nc2)cc1 [Compound 446, N-(4-tert-Butyl-phenyl)-6-(2-nitro-phenyl)-nicotinamide] | < 1000 |  |
| CC(C)(C)c1ccc(NC(=O)c2ccc(-c3ccccc3C(F)(F)F)nc2)cc1 [Compound 447, N-(4-tert-Butyl-phenyl)-6-(2-trifluoromethyl-phenyl)-nicotinamide] | < 1000 |  |
| CC(C)(C)c1ccc(NC(=O)c2ccc(-c3cccc(F)c3)nc2)cc1 [Compound 448, N-(4-tert-Butyl-phenyl)-6-(3-fluoro-phenyl)-nicotinamide] | < 1000 |  |
| COc1cccc(-c2ccc(C(=O)Nc3ccc(C(C)(C)C)cc3)cn2)c1 [Compound 449, N-(4-tert-Butyl-phenyl)-6-(3-methoxy-phenyl)-nicotinamide] | < 1000 |  |
| CC(C)(C)c1ccc(NC(=O)c2ccc(-c3ccc(O)cc3)nc2)cc1 [Compound 450, N-(4-tert-Butyl-phenyl)-6-(4-hydroxy-phenyl)-nicotinamide] | < 1000 |  |
| CC(C)(C)c1ccc(NC(=O)c2ccc(-c3ccccc3N(S(C)(=O)=O)S(C)(=O)=O)nc2)cc1 [Compound 451, N-(4-tert-Butyl-phenyl)-6-[2-(N,N-dimethanesulfonyl)amino-phenyl]-nicotinamide] | < 1000 |  |
| Cc1cccc(-c2ccc(C(=O)Nc3ccc(C(C)(C)C)cc3)cn2)c1 [Compound 452, N-(4-tert-Butyl-phenyl)-6-m-tolyl-nicotinamide] | < 1000 |  |
| Cc1ccccc1-c1ccc(C(=O)Nc2ccc(C(C)(C)C)cc2)cn1 [Compound 453, N-(4-tert-Butyl-phenyl)-6-o-tolyl-nicotinamide] | < 1000 |  |
| CC(C)(C)c1ccc(NC(=O)c2ccc(-c3ccccc3)nc2)cc1 [Compound 454, N-(4-tert-Butyl-phenyl)-6-phenyl-nicotinamide] | < 1000 |  |
| CS(=O)(=O)N(c1cccnc1-c1ccc(C(=O)Nc2ccc(C(F)(F)F)cc2)cc1)S(C)(=O)=O [Compound 456, N-(4-Trifluoromethyl-phenyl)-4-[3-(N,N-dimethanesulfonyl)amino-pyridin-2-yl]-benzamide] | < 1000 |  |
| CS(=O)(=O)N(c1cccnc1-c1ccc(C(=O)Nc2ccc(C(F)(F)F)cn2)cc1)S(C)(=O)=O [Compound 457, N-(5-Trifluoromethyl-pyridin-2-yl)-4-[3-(N,N-dimethanesulfonyl)amino-pyndin-2-yl]-benzamide] | < 1000 |  |
| CCC1(c2ccc(NC(=O)c3ccc(-c4ncccc4F)cc3)cc2)CCC(=O)NC1=O (stereo not drawn) [Compound 458, N-[4-(3-Ethyl-2,6-dioxo-piperidin-3-yl)-phenyl]-4-(3-fluoro-pyridin-2-yl)-benzamide] |  | < 1000 |
| Cc1ccccc1-c1ccc(C(=O)Nc2ccc(Oc3ccc(Cl)cc3)cc2)cn1 [Compound 459, N-[4-(4-Chloro-phenoxy)-phenyl]-6-o-tolyl-nicotinamide] | < 1000 |  |
| CC(C)c1cccc(-c2ccc(C(=O)Nc3ccc4c(c3)CCC4)cn2)c1 [Compound 462, N-Indan-5-yl-6-(3-isopropyl-phenyl)-nicotinainide] | < 1000 |  |
| COc1cccc(-c2ccc(C(=O)Nc3ccc4c(c3)CCC4)cn2)c1 [Compound 463, N-Indan-5-yl-6-(3-methoxy-phenyl)-nicotinamide] | < 1000 |  |
